Values of other authors in patent publication EP4407007A1, “ECO-FRIENDLY INK FORMULATION, PARTICULARLY FOR BALLPOINT PENS AND ASSOCIATED BALLPOINT PEN CARTRIDGE” (Reinol S.r.l., priority 2023, dated 2024).

Assays:
[1] = hazard category
[2] = test system: Fish; conditions: hazard category
[3] = hazard category; remark: listed apart in the source

CC1(C)OCC(CO)O1 (racemic) [2,2-dimethyl-1,3-dioxolane-4-yl-methanol]
Acute toxicity Oral inhalation [1]: Unclassified
Aquatic toxicity Fish [2]: Unclassified
Skin irritation [3]: Unclassified

OCc1ccccc1 [benzyl alcohol]
Acute toxicity Oral inhalation [1]: Category 4
Aquatic toxicity Fish [2]: Category 2
Skin irritation [3]: Category 2
